Some test systems named below: SF-295 CNS; SK-MEL-5 melanoma; RPMI-8226 leukemia; NCI-H226 lung; SW-620 colon; SN12C renal; MDA-MB-231 breast; UACC-257 melanoma; U251 CNS; T-47D breast.
Assay in all cases: inhibition of tumour cell growth, NCI panel, 48 h

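A five-concentration, 48-hour dose response in 96-well plates underlies each endpoint, interpolated linearly between surrounding concentrations. TGI denotes the concentration required for complete inhibition of growth.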

Drawing on PubChem BioAssay (NCI), this text covers TGI for 13 compounds.

In the case of `O=S(=O)(O)c1cc(Cl)c(O)c2ncc(Cl)cc12`, the TGI in the test with SF-295 CNS, with SK-MEL-5 melanoma, in the test with RPMI-8226 leukemia, in the test with NCI-H226 lung, in the test on SW-620 colon and in the test with SN12C renal was over 100 µM each time. The TGI with MDA-MB-231 breast, in the test on UACC-257 melanoma, in the test on U251 CNS and in the test on T-47D breast was over 100 µM each time.

For the compound `c1ccc(COc2ccc(C[P+](c3ccccc3)(c3ccccc3)c3ccccc3)cc2)cc1`, the TGI was 2.97 µM with SF-295 CNS; 0.284 µM with SK-MEL-5 melanoma; 0.201 µM in the test on RPMI-8226 leukemia; 22.4 µM with NCI-H226 lung; 10.2 µM with SW-620 colon; 5.03 µM with SN12C renal. Besides, the TGI was 4.86 µM in the test on MDA-MB-231 breast, 11.6 µM in the test on UACC-257 melanoma, 11.8 µM with U251 CNS and 0.839 µM with T-47D breast.

On to `COc1ccc2c(c1O)-c1c(OC)c(OC)cc3c1[C@H](C2)[N+](C)(C)CC3`, for which the TGI with SF-295 CNS, with SK-MEL-5 melanoma, in the test with RPMI-8226 leukemia, in the test on NCI-H226 lung, with SW-620 colon and with SN12C renal was over 100 µM throughout. Besides, the TGI with MDA-MB-231 breast, in the test with UACC-257 melanoma, with U251 CNS and in the test on T-47D breast was over 100 µM throughout.

As for `Cc1cc(-c2ccc(C(=O)C(Cl)(Cl)Cl)[nH]2)on1`, the TGI in the test on SF-295 CNS is over 100 µM; in the test with SK-MEL-5 melanoma it was over 100 µM; in the test on RPMI-8226 leukemia it was over 100 µM; with NCI-H226 lung it was 62.9 µM; in the test on SW-620 colon, over 100 µM; in the test with SN12C renal, 43.2 µM. Besides, the TGI with MDA-MB-231 breast was 60.1 µM; in the test with UACC-257 melanoma it was over 100 µM; with U251 CNS, 28.7 µM; in the test on T-47D breast, over 100 µM.

`Cc1ncc([N+](=O)[O-])n1CCN(C)CCCCn1ccnc1[N+](=O)[O-]`: the TGI in the test with SF-295 CNS, with SK-MEL-5 melanoma, in the test on RPMI-8226 leukemia, in the test on NCI-H226 lung, in the test on SW-620 colon and in the test on SN12C renal was over 100 µM in each case. Also, the TGI in the test on MDA-MB-231 breast, with UACC-257 melanoma, with U251 CNS and in the test on T-47D breast was over 100 µM throughout.

Consider `N#CI1OC(=O)c2ccccc21`, for which the TGI in the test with SF-295 CNS, in the test on SK-MEL-5 melanoma, with RPMI-8226 leukemia, in the test on NCI-H226 lung, with SW-620 colon and in the test with SN12C renal was over 100 µM throughout. In addition, the TGI with MDA-MB-231 breast, in the test with UACC-257 melanoma, in the test on U251 CNS and with T-47D breast was over 100 µM each time.

In the case of `COc1cc2c(cc1OC)C(=O)N(c1ccc(O)cc1)C2`, the TGI in the test with SF-295 CNS, in the test with SK-MEL-5 melanoma, in the test on RPMI-8226 leukemia, with NCI-H226 lung, with SW-620 colon and with SN12C renal was over 100 µM throughout. For the same compound, the TGI in the test with MDA-MB-231 breast, in the test with UACC-257 melanoma, in the test with U251 CNS and in the test on T-47D breast was over 100 µM each time.

`CSc1nc2c(c(N(C)C)n1)C=Nn1c(nc3ccccc31)S2`: the TGI in the test on SF-295 CNS, with SK-MEL-5 melanoma, in the test with RPMI-8226 leukemia, in the test with NCI-H226 lung, in the test with SW-620 colon and with SN12C renal was over 100 µM throughout. Besides, the TGI in the test on MDA-MB-231 breast, in the test with UACC-257 melanoma, with U251 CNS and in the test with T-47D breast was over 100 µM in each case.

In the case of `C[N+]1(C)CC=C(N2CCOCC2)CC1`, the TGI in the test with SF-295 CNS, with SK-MEL-5 melanoma, in the test on RPMI-8226 leukemia, in the test on NCI-H226 lung, in the test with SW-620 colon and with SN12C renal was over 10 µM throughout. Moreover, the TGI in the test with MDA-MB-231 breast, in the test on UACC-257 melanoma, in the test on U251 CNS and in the test with T-47D breast was over 10 µM in each case.

As to `CCOC(=O)c1ccc(NC2Oc3cc4c(cc3C(c3cc(OC)c(OC)c(OC)c3)C2C)OCO4)cc1` (stereo not given), the TGI with SF-295 CNS is 2.9 µM; with SK-MEL-5 melanoma, 1.49 µM; with RPMI-8226 leukemia, 4.92 µM; in the test with NCI-H226 lung, 16 µM; in the test on SW-620 colon it was over 100 µM; in the test with SN12C renal, over 71.5 µM. For the same compound, the TGI with MDA-MB-231 breast is 2.24 µM; in the test with UACC-257 melanoma it was over 100 µM; in the test with U251 CNS, over 42.5 µM; in the test on T-47D breast it was over 100 µM.

As to `COC(=O)C1Cc2c(C)cccc2C1=O` (stereo not given), the TGI in the test with SF-295 CNS, in the test on SK-MEL-5 melanoma, with RPMI-8226 leukemia, in the test with NCI-H226 lung, in the test with SW-620 colon and with SN12C renal was over 100 µM in each case. Besides, the TGI in the test with MDA-MB-231 breast, in the test with UACC-257 melanoma, in the test on U251 CNS and in the test with T-47D breast was over 100 µM each time.

For the compound `CCOC(=O)C1(Cc2ccc(C)cc2)Cc2ccc(C)cc2C1=O` (stereo not given), the TGI was over 86.5 µM in the test with SF-295 CNS; 20.8 µM with SK-MEL-5 melanoma; 64.2 µM in the test with RPMI-8226 leukemia; over 92.4 µM with NCI-H226 lung; over 100 µM in the test on SW-620 colon; over 100 µM in the test with SN12C renal. Further, the TGI was over 100 µM with MDA-MB-231 breast, 98.2 µM in the test on UACC-257 melanoma, 35.6 µM in the test on U251 CNS and over 74.6 µM in the test with T-47D breast.

`NCCC1(N)CCNCC1`: the TGI in the test on SF-295 CNS, with SK-MEL-5 melanoma, with RPMI-8226 leukemia, in the test on NCI-H226 lung, in the test on SW-620 colon and in the test on SN12C renal was over 100 µM in each case. Besides, the TGI in the test with MDA-MB-231 breast, with UACC-257 melanoma, in the test on U251 CNS and in the test on T-47D breast was over 100 µM in each case.
